# From patent US20110178105A1, “CLINICAL BENEFITS OF EICOSAPENTAENOIC ACID IN HUMANS” (E.I. DU PONT DE NEMOURS AND COMPANY, priority 2010, published 2011)
# Several values for one entry are separate records, joined by “and”; a condition that tells them apart may be missing. Equal entries are not always repeated. Where two headings read alike, the source gives them in different places.
# Tests used:
# [1] = Clinical study: fasting serum lipids, lipoproteins and apolipoproteins (automated analyzer); format: in vivo, human; details: 6 weeks; for HDL C, 6-Week Change (%) / HDL C, Final / LDL C, Final / Lp(a), 6-Week Change (%) / Lp(a), Final / Total Cholesterol, 6-Week Change (%) / Total Cholesterol, Final / Triglyceride, 6-Week Change (%) / Triglyceride, Final / apoA-I, 6-Week Change (%) / apoA-I, Final / apoB, 6-Week Change (%) / apoB, Final / sdLDL, 6-Week Change (%) / sdLDL, Final / LDL C, 6-Week Change (%): Fast
# Method: At visit 2, subjects were again asked to fast for 12 hours, and information about subject characteristics including all vital signs, recent illness or hospitalization, medication and supplement use, and diet information was again obtained. Subjects then had blood drawn for a metabolic profile and complete blood counts. […] Subjects (30 in each group) were then randomized equally for 6 weeks to one of four treatment arms: 1) olive oil placebo; 2) 600 mg of EPA/day; 3) 1800 mg of EPA/day; and, 4) 600 mg of DHA/day. At one week and three weeks after beginning the supplements, all study subjects were contacted by telephone and asked about any adverse effects and about their compliance, and the information on their calendars with regard to capsule use and fish intake. They were also asked about whether they had experienced any fishy aftertaste or odor, and if so, how frequent were these episodes, and how unpleasant were they? The entire process as listed above was repeated after study subjects were on the study capsules for 6 weeks at the time of the final visit. Compliance and adverse events were assessed by telephone at weeks 1 and 3 by telephone and at week 6 by questionnaire and capsule count. Over 42 days, subjects were expected to have consumed a total of 252 capsules. Compliance was calculated as a percentage of consumed capsule count/expected capsule count based on the number of days the subject was in the study. All subjects were asked to stay on their capsules until they come in for their final visit. Compliance in all participants who completed the study was based on capsule count was in excess of 85%, mean 96%.
# The following laboratory measurements were carried out on an automated analyzer (Roche Diagnostics, Indianapolis, Ind.) on samples obtained in the fasting state at the randomization visit, and the final visits using frozen aliquots of serum stored at −80 degrees Celsius: 1) total cholesterol; 2) triglycerides; 3) direct high density lipoprotein [“HDL”] cholesterol; 4) direct low density lipoprotein [“LDL”] cholesterol; 5) direct small dense LDL cholesterol; 6) apolipoprotein [“apo”] B; 7) apoA-I; 8) lipoprotein (a); 9) fibrinogen; 10) high sensitivity C reactive protein [“hs-CRP”]; 11) lipoprotein associated phospholipase A2 [“Lp-PLA2”]; and, 12) insulin as previously described. See, McNamara, J. R. and Schaefer, E. J., Clin. Chim. Acta, 166:1-8 (1987); Okada, M. et al., J. Lab. Clin. Med., 132:195-201 (1998); Hirano, T. et al., J. Lipid Res., 44:2193-2201 (2003); Ai, M. et al., Am. J. Cardiol., 101:315-318 (2008); Ingelsson, E. et al., JAMA, 298:776-785 (2007); Jenner, J. L. et al., Circulation, 87:1135-1141 (1993); Schaefer, E. J. et al., Am. J. Cardiol., 95:1025-1032 (2005); McNamara, J. R. et al., Atherosclerosis, 154:229-236 (2001).
# On the samples obtained 4 hours after the fat-rich meal, total cholesterol, triglycerides, direct HDL cholesterol, and direct LDL cholesterol were measured. Direct LDL cholesterol and small dense LDL cholesterol levels were measured using kits obtained from Denka-Seiken Corporation, (Tokyo, Japan), as previously described (Okada, M. et al., supra; Hirano, T. et al., supra; Ai, M. et al., supra). Remnant lipoprotein cholesterol was measured using kits obtained from Polymedco (Cortland Manor, N.Y.) and manufactured by Otsuka Corporation (Tokyo, Japan) as previously described (McNamara, J. R. et al., Atherosclerosis, supra). All lipid assays are standardized through the Lipid Research Clinics standardization program of the Centers for Disease Control (Atlanta, Ga.). All assays had between and within run coefficients of variation of <5%. Serum fatty acid profiles were analyzed by Nutrasource Diagnostics (Guelph, Ontario, Canada).
# [2] = design: reduction of events / relative risk reduction in stroke / reduction of risk of subsequent CHD events / relative risk reduction of major cardiovascular events: concentration or dose not given beside the values; details: cited from earlier work
# [3] = EPA 1800 mg/day plus statin group (9,326), 4.6 years of follow-up
structure (smiles),measurement,setting,value
"CCC=CCC=CCC=CCC=CCC=CC/C=C\CCC(=O)O [DHA, cis-4,7, 10, 13, 16, 19-docosahexaenoic acid, reference compound]","HDL C, 6-Week Change (%)",[1]; DHA 600 mg (n = 28),+1.3 ± 14.7%
same,"HDL C, Final",[1]; DHA 600 mg (n = 28),62.0 ± 23.7 mg/dL
same,"LDL C, Final",[1]; DHA 600 mg (n = 28),130.3 ± 37.2 mg/dL
same,"Lp(a), 6-Week Change (%)",[1]; DHA 600 mg (n = 28),+27.7 ± 156.3%
same,"Lp(a), Final",[1]; DHA 600 mg (n = 28),40.0 ± 40.1 mg/dL
same,"Total Cholesterol, 6-Week Change (%)",[1]; DHA 600 mg (n = 28),+2.9 ± 12.0%
same,"Total Cholesterol, Final",[1]; DHA 600 mg (n = 28),216.1 ± 44.1 mg/dL
same,"Triglyceride, 6-Week Change (%)",[1]; DHA 600 mg (n = 28),−5.8 ± 30.4%
same,"Triglyceride, Final",[1]; DHA 600 mg (n = 28),104.4 ± 58.0 mg/dL
same,"apoA-I, 6-Week Change (%)",[1]; DHA 600 mg (n = 28),−2.0 ± 10.5%
same,"apoA-I, Final",[1]; DHA 600 mg (n = 28),177.5 ± 43.0 mg/dL
same,"apoB, 6-Week Change (%)",[1]; DHA 600 mg (n = 28),+6.0 ± 15.6%
same,"apoB, Final",[1]; DHA 600 mg (n = 28),97.1 ± 25.7 mg/dL
same,"sdLDL, 6-Week Change (%)",[1]; DHA 600 mg (n = 28),−2.2 ± 24.7%
same,"sdLDL, Final",[1]; DHA 600 mg (n = 28),31.1 ± 13.3 mg/dL
"CCC=CCC=CCC=CCC=CC/C=C\CCCC(=O)O [EPA, cis-5,8, 11, 14, 17-eicosapentaenoic acid]",triglyceride lowering,[2]; 1800 mg/day of EPA,no significant effect
same,reduction of risk of subsequent CHD events,"[2]; 1,050 subjects with prior myocardial infarction, EPA plus statin, p=0.033",27%
same,decrease in cardiovascular events,[2]; >98% purified EPA-ethyl esters plus statin versus statin alone,19%
same,major cardiovascular event rate,[2]; [3],2.8%
same,major cardiovascular events observed,[2]; [3],262 events
same,sudden death rates between the groups,[2]; EPA plus statin versus statin-only,No significant differences
same,relative risk reduction of major cardiovascular events,"[2]; EPA plus statin versus statin-only, p=0.011",19%
same,effects on lipid levels,[2]; EPA plus statin,not associated with any significant effects
same,reduction in stroke,"[2]; entire cohort, EPA plus statin",not associated with a significant reduction
same,stroke rate,"[2]; entire cohort, EPA plus statin",1.3%
same,risk reduction,"[2]; impaired glucose tolerance (fasting glucose >110 mg/dl), EPA plus statin, p=0.048",22%
same,risk reduction,"[2]; normal glucose group, EPA plus statin, not significant",18%
same,reduction of events,"[2]; patients with a history of prior CHD, EPA plus statin versus statin-only, p=0.048",19%
same,event rate,"[2]; patients with a history of prior CHD, EPA plus statin",8.7%
same,number needed to treat,[2]; patients with a history of prior CHD,49
same,rate of subsequent CHD events,"[2]; subjects with prior myocardial infarction, EPA plus statin",15.0%
same,number needed to treat to prevent one event,[2]; subjects with prior myocardial infarction,19
same,stroke rate,"[2]; subjects with prior stroke, EPA plus statin",6.8%
same,relative risk reduction in stroke,"[2]; subjects with prior stroke, EPA plus statin, p<0.05",20%
same,event rate,"[2]; subjects without CHD, EPA plus statin",1.4%
same,risk reduction,"[2]; subjects without CHD, p 0.132 (not significant)",18%
same,reduction of CHD events,"[2]; triglyceride >150 mg/dl and HDL cholesterol <40 mg/dl, EPA plus statin, p=0.043",53%
same,LDL cholesterol levels,[1]; FIG. 5,did not increase
same,"HDL C, 6-Week Change (%)",[1]; EPA 600 mg (n = 27),+0.4 ± 13.7%
same,"HDL C, Final",[1]; EPA 600 mg (n = 27),57.9 ± 18.0 mg/dL
same,"LDL C, 6-Week Change (%)",[1]; EPA 600 mg (n = 27),−2.5 ± 11.7%
same,"LDL C, Final",[1]; EPA 600 mg (n = 27),118.1 ± 35.8 mg/dL
same,"Lp(a), 6-Week Change (%)",[1]; EPA 600 mg (n = 27),+18.3 ± 84.8%
same,"Lp(a), Final",[1]; EPA 600 mg (n = 27),32.8 ± 32.4 mg/dL
same,"Total Cholesterol, 6-Week Change (%)",[1]; EPA 600 mg (n = 27),−1.8 ± 9.5%
same,"Total Cholesterol, Final",[1]; EPA 600 mg (n = 27),199.2 ± 48.7 mg/dL
same,"Triglyceride, 6-Week Change (%)",[1]; EPA 600 mg (n = 27),−1.3 ± 31.6%
same,"Triglyceride, Final",[1]; EPA 600 mg (n = 27),107.0 ± 43.2 mg/dL
same,"apoA-I, 6-Week Change (%)",[1]; EPA 600 mg (n = 27),−1.3 ± 12.4%
same,"apoA-I, Final",[1]; EPA 600 mg (n = 27),173.6 ± 36.3 mg/dL
same,"apoB, 6-Week Change (%)",[1]; EPA 600 mg (n = 27),−2.3 ± 10.9%
same,"apoB, Final",[1]; EPA 600 mg (n = 27),90.1 ± 22.8 mg/dL
same,"sdLDL, 6-Week Change (%)",[1]; EPA 600 mg (n = 27),−7.3 ± 18.2%
same,"sdLDL, Final",[1]; EPA 600 mg (n = 27),29.5 ± 12.0 mg/dL
same,decrease versus baseline in small dense LDL cholesterol,"[1]; EPA 600 mg/day, p=0.0087",7.3%
same,"HDL C, 6-Week Change (%)",[1]; EPA 1800 mg (n = 29),+2.5 ± 12.7%
same,"HDL C, Final",[1]; EPA 1800 mg (n = 29),59.9 ± 15.7 mg/dL
same,"LDL C, 6-Week Change (%)",[1]; EPA 1800 mg (n = 29),−2.0 ± 13.7%
same,"LDL C, Final",[1]; EPA 1800 mg (n = 29),120.6 ± 26.8 mg/dL
same,"Lp(a), 6-Week Change (%)",[1]; EPA 1800 mg (n = 29),+5.1 ± 26.1%
same,"Lp(a), Final",[1]; EPA 1800 mg (n = 29),32.2 ± 23.6 mg/dL
same,"Total Cholesterol, 6-Week Change (%)",[1]; EPA 1800 mg (n = 29),−1.7 ± 11.2%
same,"Total Cholesterol, Final",[1]; EPA 1800 mg (n = 29),201.1 ± 35.3 mg/dL
same,"Triglyceride, 6-Week Change (%)",[1]; EPA 1800 mg (n = 29),−5.0% and −5.0 ± 28.6%
same,"Triglyceride, Final",[1]; EPA 1800 mg (n = 29),102.8 ± 82.8 mg/dL
same,"apoA-I, 6-Week Change (%)",[1]; EPA 1800 mg (n = 29),+0.4 ± 10.8%
same,"apoA-I, Final",[1]; EPA 1800 mg (n = 29),173.1 ± 31.3 mg/dL
same,"apoB, 6-Week Change (%)",[1]; EPA 1800 mg (n = 29),−1.6 ± 12.2%
same,"apoB, Final",[1]; EPA 1800 mg (n = 29),91.7 ± 19.1 mg/dL
same,"sdLDL, 6-Week Change (%)",[1]; EPA 1800 mg (n = 29),−8.8 ± 19.5%
same,"sdLDL, Final",[1]; EPA 1800 mg (n = 29),30.6 ± 9.4 mg/dL
same,decrease versus baseline in small dense LDL cholesterol,"[1]; EPA 1800 mg/day, p=0.018",8.8%
